Measurements: US20220289679A1, “HETEROCYCLIC COMPOUND” (Takeda Pharmaceutical Company Limited, priority 2019, published 2022)

Target: T1, human GCS (glucosylceramide synthase) (Homo sapiens, UniProt Q16739)
T1 construct: made in house; host or cells: Expi293F cells (transient expression; microsome fraction)
T1 sequence (Q16739 1-394): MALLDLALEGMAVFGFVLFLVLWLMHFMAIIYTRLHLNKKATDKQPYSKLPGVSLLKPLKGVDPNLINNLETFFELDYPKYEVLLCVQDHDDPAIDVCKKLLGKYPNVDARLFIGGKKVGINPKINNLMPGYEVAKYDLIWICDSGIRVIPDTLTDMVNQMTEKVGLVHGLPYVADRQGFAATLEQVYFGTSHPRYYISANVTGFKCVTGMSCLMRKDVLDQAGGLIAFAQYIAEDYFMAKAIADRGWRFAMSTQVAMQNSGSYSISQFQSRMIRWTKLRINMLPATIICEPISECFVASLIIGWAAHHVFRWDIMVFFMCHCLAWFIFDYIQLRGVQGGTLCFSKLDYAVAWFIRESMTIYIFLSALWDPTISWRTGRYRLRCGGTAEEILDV
Test: Glucosylceramide Synthase (GCS) Assay
Type: biochemical
Details: test compound 10 μM; microsome fraction of Expi293F cells expressing human GCS; 1.7 μM UDP-glucose, 3 μM C8 ceramide; room temperature 60 min; C8 glucosylceramide by Rapidfire MS/MS; read-out: GCS enzyme inhibitory rate at 10 μM (%)
Outline: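 Test compounds were run at a final 10 μM against liposomal C8 ceramide (3 μM) and UDP-glucose at its Km (1.7 μM). Human GCS came as microsomes from transfected Expi293F cells, incubated 60 min at room temperature, pH 7.5. Product measured by RapidFire MS/MS; 0% and 100% inhibition were DMSO and no-enzyme wells.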

Row | Structure (SMILES) | inhibition at 10 µM
1 | CC(C)(O)COc1cc(F)ccc1-n1cccc(C(=O)Nc2ccc(C(O)(C(F)(F)F)C(F)(F)F)cc2)c1=O [Example 105, 1-[4-fluoro-2-(2-hydroxy-2-methylpropoxy)phenyl]-N-[4-(1,1,1,3,3,3-hexafluoro-2-hydroxypropan-2-yl)phenyl]-2-oxo-1,2-dihydropyridine-3-carboxamide] | 99%
2 | CC(C)(O)c1ccc(NC(=O)c2ccnn(-c3ccc(F)cc3OCC(F)(F)C(F)(F)F)c2=O)cc1 [Example 106, 2-[4-fluoro-2-(2,2,3,3,3-pentafluoropropoxy)phenyl]-N-[4-(2-hydroxypropan-2-yl)phenyl]-3-oxo-2,3-dihydropyridazine-4-carboxamide] | 99%
3 | Cc1cc(C(=O)Nc2ccc(C(C)(C)O)cc2)c(=O)n(-c2ccc(F)cc2OCC(F)(F)F)c1 [Example 107, 1-[4-fluoro-2-(2,2,2-trifluoroethoxy)phenyl]-N-[4-(2-hydroxypropan-2-yl)phenyl]-5-methyl-2-oxo-1,2-dihydropyridine-3-carboxamide] | 100%
4 | CC(C)(O)c1ccc(NC(=O)c2cccn(-c3cc(F)c(F)cc3OCC(F)(F)F)c2=O)cc1 [Example 108, 1-[4,5-difluoro-2-(2,2,2-trifluoroethoxy)phenyl]-N-[4-(2-hydroxypropan-2-yl)phenyl]-2-oxo-1,2-dihydropyridine-3-carboxamide] | 95%
5 | Cc1cc(C(=O)Nc2ccc(C(O)(C(F)F)C(F)F)nc2)c(=O)n(-c2ccccc2OCC(F)F)n1 [Example 109, 2-[2-(2,2-difluoroethoxy)phenyl]-6-methyl-3-oxo-N-[6-(1,1,3,3-tetrafluoro-2-hydroxypropan-2-yl)pyridin-3-yl]-2,3-dihydropyridazine-4-carboxamide] | 100%
6 | O=C(Nc1ccc(OCC(F)(F)F)nc1)c1cccn(-c2ncncc2OCC(F)(F)F)c1=O [Example 110, 2-oxo-N-[6-(2,2,2-trifluoroethoxy)pyridin-3-yl]-1-[5-(2,2,2-trifluoroethoxy)pyrimidin-4-yl]-1,2-dihydropyridine-3-carboxamide] | 99%
7 | CC(C)(O)c1ccc(NC(=O)c2cccn(-c3ccc(F)c(F)c3OCC(F)(F)F)c2=O)cc1 [Example 111, 1-[3,4-difluoro-2-(2,2,2-trifluoroethoxy)phenyl]-N-[4-(2-hydroxypropan-2-yl)phenyl]-2-oxo-1,2-dihydropyridine-3-carboxamide] | 98%
8 | CC(C)(O)c1ccc(NC(=O)c2ccnn(-c3ccc(F)cc3OCC(F)(F)F)c2=O)cn1 [Example 112, 2-[4-fluoro-2-(2,2,2-trifluoroethoxy)phenyl]-N-[6-(2-hydroxypropan-2-yl)pyridin-3-yl]-3-oxo-2,3-dihydropyridazine-4-carboxamide] | 94%
9 | CC(C)(O)c1ccc(NC(=O)c2cccn(-c3cc(F)ccc3OCC(F)(F)F)c2=O)cc1 [Example 113, 1-[5-fluoro-2-(2,2,2-trifluoroethoxy)phenyl]-N-[4-(2-hydroxypropan-2-yl)phenyl]-2-oxo-1,2-dihydropyridine-3-carboxamide] | 98%
10 | CC(C)(O)c1ccc(NC(=O)c2cccn(-c3cccnc3OCC(F)(F)F)c2=O)cc1 [Example 114, N-[4-(2-hydroxypropan-2-yl)phenyl]-2-oxo-2′-(2,2,2-trifluoroethoxy)-2H-[1,3′-bipyridine]-3-carboxamide] | 96%
11 | O=C(Nc1ccc(C(O)(C(F)F)C(F)F)nc1)c1ccnn(-c2ccc(F)cc2OCC(F)(F)F)c1=O [Example 117, 2-[4-fluoro-2-(2,2,2-trifluoroethoxy)phenyl]-3-oxo-N-[6-(1,1,3,3-tetrafluoro-2-hydroxypropan-2-yl)pyridin-3-yl]-2,3-dihydropyridazine-4-carboxamide] | 100%
12 | O=C(Nc1ccc(C(O)(C(F)F)C(F)F)nc1)c1cccn(-c2cc(F)c(F)cc2OCC(F)(F)F)c1=O [Example 118, 1-[4,5-difluoro-2-(2,2,2-trifluoroethoxy)phenyl]-2-oxo-N-[6-(1,1,3,3-tetrafluoro-2-hydroxypropan-2-yl)pyridin-3-yl]-1,2-dihydropyridine-3-carboxamide] | 97%
13 | CC(C)(O)c1ccc(NC(=O)c2cccn(-c3ncncc3OCC(F)(F)F)c2=O)cn1 [Example 119, N-[6-(2-hydroxypropan-2-yl)pyridin-3-yl]-2-oxo-1-[5-(2,2,2-trifluoroethoxy)pyrimidin-4-yl]-1,2-dihydropyridine-3-carboxamide] | 74%
14 | CC(C)(O)c1ccc(NC(=O)c2cccn(-c3cccnc3OCC(F)(F)F)c2=O)cn1 [Example 120, N-[6-(2-hydroxypropan-2-yl)pyridin-3-yl]-2-oxo-2′-(2,2,2-trifluoroethoxy)-2H-[1,3′-bipyridine]-3-carboxamide] | 74%
15 | O=C(Nc1ccc(C(O)(C(F)F)C(F)F)nc1)c1cccn(-c2ccnnc2OCC(F)(F)F)c1=O [Example 122, 2-oxo-N-[6-(1,1,3,3-tetrafluoro-2-hydroxypropan-2-yl)pyridin-3-yl]-1-[3-(2,2,2-trifluoroethoxy)pyridazin-4-yl]-1,2-dihydropyridine-3-carboxamide] | 95%
16 | O=C(Nc1ccc(C(O)(C(F)F)C(F)F)nc1)c1cccn(-c2cccnc2OCC(F)(F)F)c1=O [Example 123, 2-oxo-N-[6-(1,1,3,3-tetrafluoro-2-hydroxypropan-2-yl)pyridin-3-yl]-2′-(2,2,2-trifluoroethoxy)-2H-[1,3′-bipyridine]-3-carboxamide] | 99%
17 | O=C(Nc1ccc(C(O)(C(F)F)C(F)F)nc1)c1cccn(-c2cc(F)ccc2OCC(F)(F)F)c1=O [Example 124, 1-[5-fluoro-2-(2,2,2-trifluoroethoxy)phenyl]-2-oxo-N-[6-(1,1,3,3-tetrafluoro-2-hydroxypropan-2-yl)pyridin-3-yl]-1,2-dihydropyridine-3-carboxamide] | 99%
18 | CC(C)(O)c1ccc(NC(=O)c2cccn(-c3cc(F)ccc3OCC(F)(F)F)c2=O)cn1 [Example 125, 1-[5-fluoro-2-(2,2,2-trifluoroethoxy)phenyl]-N-[6-(2-hydroxypropan-2-yl)pyridin-3-yl]-2-oxo-1,2-dihydropyridine-3-carboxamide] | 82%
19 | CC(C)(O)c1ccc(NC(=O)c2ccnn(-c3ccccc3OCC(F)(F)F)c2=O)cn1 [Example 126, N-[6-(2-hydroxypropan-2-yl)pyridin-3-yl]-3-oxo-2-[2-(2,2,2-trifluoroethoxy)phenyl]-2,3-dihydropyridazine-4-carboxamide] | 97%
20 | CC(C)(O)c1ccc(NC(=O)c2ccnn(-c3ccccc3OCC(F)(F)F)c2=O)cc1 [Example 127, N-[4-(2-hydroxypropan-2-yl)phenyl]-3-oxo-2-[2-(2,2,2-trifluoroethoxy)phenyl]-2,3-dihydropyridazine-4-carboxamide] | 100%
21 | CC(C)(O)c1ccc(NC(=O)c2ccnn(-c3ccccc3OCC(F)(F)F)c2=O)nc1 [Example 128, N-[5-(2-hydroxypropan-2-yl)pyridin-2-yl]-3-oxo-2-[2-(2,2,2-trifluoroethoxy)phenyl]-2,3-dihydropyridazine-4-carboxamide] | 98%
22 | Cc1cc(C(=O)Nc2ccc(C(C)(C)O)nc2)c(=O)n(-c2ccccc2OCC(F)(F)F)n1 [Example 129, N-[6-(2-hydroxypropan-2-yl)pyridin-3-yl]-6-methyl-3-oxo-2-[2-(2,2,2-trifluoroethoxy)phenyl]-2,3-dihydropyridazine-4-carboxamide] | 99%
23 | Cc1cc(C(=O)Nc2ccc(C(C)(C)O)cn2)c(=O)n(-c2ccccc2OCC(F)(F)F)n1 [Example 130, N-[5-(2-hydroxypropan-2-yl)pyridin-2-yl]-6-methyl-3-oxo-2-[2-(2,2,2-trifluoroethoxy)phenyl]-2,3-dihydropyridazine-4-carboxamide] | 99%
24 | Cc1cc(C(=O)Nc2ccc(C(C)(C)O)cc2)c(=O)n(-c2ccccc2OCC(F)(F)F)n1 [Example 131, N-[4-(2-hydroxypropan-2-yl)phenyl]-6-methyl-3-oxo-2-[2-(2,2,2-trifluoroethoxy)phenyl]-2,3-dihydropyridazine-4-carboxamide] | 100%
25 | CC(C)(O)c1ccc(NC(=O)c2ccnn(-c3ccccc3OCC(F)F)c2=O)nc1 [Example 132, 2-[2-(2,2-difluoroethoxy)phenyl]-N-[5-(2-hydroxypropan-2-yl)pyridin-2-yl]-3-oxo-2,3-dihydropyridazine-4-carboxamide] | 96%
26 | CC(C)(O)c1ccc(NC(=O)c2ccnn(-c3ccccc3OCC(F)F)c2=O)cc1 [Example 133, 2-[2-(2,2-difluoroethoxy)phenyl]-N-[4-(2-hydroxypropan-2-yl)phenyl]-3-oxo-2,3-dihydropyridazine-4-carboxamide] | 100%
27 | CC(C)(O)c1ccc(NC(=O)c2ccnn(-c3ccccc3OCC(F)F)c2=O)cn1 [Example 134, 2-[2-(2,2-difluoroethoxy)phenyl]-N-[6-(2-hydroxypropan-2-yl)pyridin-3-yl]-3-oxo-2,3-dihydropyridazine-4-carboxamide] | 94%
